# Values joined by “and” are separate entries in the source; they are usually repeats but may differ in a detail not shown here. Equal values may be shown once.
# Test system: lipase
# Assay: Lipase/lipolysis assay (EnzChek Lipase Substrate, quenched BODIPY-fatty acid conjugate) on stored human milk; also: test concentration or dose not given here
# Conditions: not given
row,Compound,Lipase (RFU)
1,CC1(C)CC[C@]2(C(=O)O)CC[C@]3(C)C(=CC[C@@H]4[C@@]5(C)CC[C@H](O[C@@H]6O[C@H](C(=O)O)[C@@H](O)[C@H](O)[C@H]6O)C(C)(C)[C@@H]5CC[C@]43C)[C@@H]2C1 [Calenduloside E],1034.138 RFU
2,O=C([O-])c1ccccc1O.[Na+] [Sodium Salicylate],847.8959 RFU and 820.8026 RFU
3,Erythrosine B,836.3958 RFU
4,O=P([O-])([O-])OP(=O)(O)O.[Na+].[Na+] [Disodium pyrophosphate],1213.966 RFU
5,NC(N)=NCCC[C@H](NC(=O)[C@@H](N)Cc1ccc(O)cc1)C(=O)O [Kyotorphin],988.5967 RFU
6,Pseudoginsenoside F11,810.4484 RFU
7,COC1=C(OC)C(=O)C(C/C=C(\C)CC/C=C(\C)CC/C=C(\C)CC/C=C(\C)CC/C=C(\C)CC/C=C(\C)CC/C=C(\C)CC/C=C(\C)CCC=C(C)C)=C(C)C1=O [Coenzyme Q9],1106.833 RFU
8,CCCCCCCCCCCCCCC[C@@H](O)[C@@H](N)CO [D-Erythro-dihydrosphingosine],1051.007 RFU
9,Isoliquiritin apioside,821.8958 RFU
10,COc1ccc(CC(=O)O)cc1O [Isohomovanillic acid],1060.172 RFU
11,COC(=O)[C@]12CCC(C)(C)C[C@H]1C1=CC[C@@H]3[C@@]4(C)CCC(=O)C(C)(C)[C@@H]4CC[C@@]3(C)[C@]1(C)CC2 [Methyl oleanonate],912.7431 RFU
12,N[C@@H](CNC(=O)C(=O)O)C(=O)O [Dencichine],1365.261 RFU
13,COc1ccccc1C(=O)O [2-Methoxybenzoic acid],739.8823 RFU and 1090.701 RFU
14,Adenine (hemisulfate),842.2125 RFU
15,O=CCCO [Reuterin],1125.363 RFU
16,CC(=O)CCc1ccc(O[C@@H]2O[C@H](CO)[C@@H](O)[C@H](O)[C@H]2O)cc1 [Raspberry ketone glucoside],1167.769 RFU
17,O=C(O)c1cccc(O)c1O [Pyrocatechuic acid],896.9439 RFU
18,CCN(Cc1cccc(S(=O)(=O)[O-])c1)c1ccc(C(=C2C=CC(=[N+](CC)Cc3cccc(S(=O)(=O)[O-])c3)C=C2)c2ccc(O)cc2S(=O)(=O)[O-])cc1.[Na+].[Na+] [Fast Green FCF],896.2144 RFU
19,Elemicin,1009.834 RFU
20,"CC(C)(C)CC(C)(C)c1ccc(O)cc1 [Compound 4-tert-Octylphenol, 4-tert-Octylphenol]",868.4892 RFU
21,COc1cc(C[C@@H](CO)[C@H](CO)Cc2ccc(O)c(OC)c2)ccc1O [Secoisolariciresinol],1112.005 RFU
22,C[C@]12CCC(=O)C=C1CC[C@@H]1[C@@H]2[C@@H](O)C[C@]2(C)C(=O)CC[C@@H]12 [11-Beta-hydroxyandrostenedione],1190.299 RFU
23,CC1(C)[C@H](C(=O)O)N2C(=O)C[C@H]2S1(=O)=O [Sulbactam],759.2536 RFU
24,C=C1CC/C=C(\C)CC[C@@H]2[C@@H]1CC2(C)C [β-Caryophyllene],881.1948 RFU
25,Isobergapten,1247.074 RFU
26,O=CO [Formic Acid],1027.958 RFU
27,O=c1c(O[C@@H]2O[C@H](CO)[C@@H](O)[C@H](O)[C@H]2O[C@@H]2O[C@H](CO)[C@@H](O)[C@H](O)[C@H]2O)c(-c2ccc(O)cc2)oc2cc(O)cc(O)c12 [Kaempferol 3-O-sophoroside],867.3846 RFU
28,CN(C)CCc1ccc(O)cc1 [Hordenine],1057.467 RFU
29,OC[C@H]1O[C@@H](Oc2cc3c(O)cc(O)cc3[o+]c2-c2cc(O)c(O)c(O)c2)[C@H](O)[C@@H](O)[C@@H]1O.[Cl-] [Delphinidin 3-glucoside (chloride)],843.0852 RFU

# Same assay, conditions: (monohydrate)
row,Compound,Lipase (RFU)
1,C[C@H](O)[C@H](O)[C@@H](O)[C@@H](O)C=O.O [Rhamnose (monohydrate)],978.8722 RFU and 922.0222 RFU
